Experiments:
[1] = 101 kPa, Liquid; for viscosity: Capillary tube (Ostwald / Ubbelohde) method
[2] = xn = mol fraction of the nth substance listed; details: 101 kPa, Liquid; for viscosity: Capillary tube (Ostwald / Ubbelohde) method

CC(C)Cc1ccccc1 [(2-methylpropyl)benzene]
[1]
Details	mass density [kg/m3]	speed of sound [m/s]	viscosity [mPa·s]
303.15 K	844.4	1268	0.905
308.15 K	841.1	1252	0.848
313.15 K	837.6	1236	0.784

CC(C)Cc1ccccc1 [(2-methylpropyl)benzene] + CCOC=O
[2]
Details	mass density, 303.15 K [kg/m3]	mass density, 308.15 K [kg/m3]	mass density, 313.15 K [kg/m3]	speed of sound, 303.15 K [m/s]	speed of sound, 308.15 K [m/s]	speed of sound, 313.15 K [m/s]	viscosity, 303.15 K [mPa·s]	viscosity, 308.15 K [mPa·s]	viscosity, 313.15 K [mPa·s]
x2 = 0	844.4	841.1	837.6	1268	1252	1236	0.905	0.848	0.784
x2 = 0.1772	849.5	845.8	842.1	1248	1228	1208	0.788	0.726	0.666
x2 = 0.3217	854.9	851	847	1224	1204	1184	0.699	0.641	0.591
x2 = 0.4514	860.8	856.8	852.6	1200	1180	1160	0.625	0.573	0.529
x2 = 0.5631	866.8	862.7	858.3	1180	1160	1140	0.569	0.522	0.48
x2 = 0.6604	873.3	868.8	864.3	1164	1144	1124	0.52	0.479	0.442
x2 = 0.7444	879.7	875	870.3	1148	1128	1108	0.481	0.445	0.413
x2 = 0.8191	886.3	881.5	876.6	1132	1112	1092	0.45	0.415	0.384
x2 = 0.8852	893.1	888	883	1120	1100	1080	0.418	0.388	0.362
x2 = 0.9461	900.5	895.3	890	1104	1084	1064	0.394	0.369	0.347

c1ccccc1 [benzene]
[1]
Details	mass density [kg/m3]	speed of sound [m/s]	viscosity [mPa·s]
303.15 K	867.6	1276	0.569
308.15 K	863.2	1252	0.534
313.15 K	858.9	1228	0.497

c1ccccc1 [benzene] + CCOC=O
[2], x2 = 0
Details	mass density [kg/m3]	speed of sound [m/s]	viscosity [mPa·s]
303.15 K	867.6	1276	0.569
308.15 K	863.2	1252	0.534
313.15 K	858.9	1228	0.497

CCCCc1ccccc1 [butylbenzene]
[1]
Details	mass density [kg/m3]	speed of sound [m/s]	viscosity [mPa·s]
303.15 K	851.3	1308	0.901
308.15 K	848	1292	0.844
313.15 K	844.6	1276	0.787

CCCCc1ccccc1 [butylbenzene] + CCOC=O
[2]
Details	mass density, 303.15 K [kg/m3]	mass density, 308.15 K [kg/m3]	mass density, 313.15 K [kg/m3]	speed of sound, 303.15 K [m/s]	speed of sound, 308.15 K [m/s]	speed of sound, 313.15 K [m/s]	viscosity, 303.15 K [mPa·s]	viscosity, 308.15 K [mPa·s]	viscosity, 313.15 K [mPa·s]
x2 = 0	851.3	848	844.6	1308	1292	1276	0.901	0.844	0.787
x2 = 0.1738	855.4	851.9	848.4	1284	1264	1244	0.782	0.713	0.65
x2 = 0.3241	860.3	856.6	852.9	1252	1232	1212	0.692	0.627	0.571
x2 = 0.4533	865.4	861.5	857.5	1220	1200	1180	0.625	0.569	0.518
x2 = 0.563	870.7	866.6	862.4	1196	1176	1156	0.571	0.521	0.476
x2 = 0.6587	876.3	872	867.6	1176	1156	1136	0.525	0.48	0.44
x2 = 0.744	882.2	877.6	873.1	1156	1136	1116	0.482	0.443	0.407
x2 = 0.8189	888.4	883.6	878.8	1140	1120	1100	0.451	0.412	0.381
x2 = 0.8855	894.5	889.6	884.6	1124	1104	1084	0.419	0.385	0.355
x2 = 0.9459	901.2	896	890.8	1108	1088	1068	0.398	0.366	0.336

CCOC=O [ethyl methanoate]
[1]
Details	mass density [kg/m3]	speed of sound [m/s]	viscosity [mPa·s]
303.15 K	907.8	1092	0.373
308.15 K	902.6	1072	0.345
313.15 K	897.1	1052	0.324

CCOC=O [ethyl methanoate] + CC(C)Cc1ccccc1
[2], x1 = 1
Details	mass density [kg/m3]	speed of sound [m/s]	viscosity [mPa·s]
303.15 K	907.8	1092	0.373
308.15 K	902.6	1072	0.345
313.15 K	897.1	1052	0.324

CCOC=O [ethyl methanoate] + CC(C)c1ccccc1
[2], x1 = 1
Details	mass density [kg/m3]	speed of sound [m/s]	viscosity [mPa·s]
303.15 K	907.8	1092	0.373
308.15 K	902.6	1072	0.345
313.15 K	897.1	1052	0.324

CCOC=O [ethyl methanoate] + CCCCc1ccccc1
[2], x1 = 1
Details	mass density [kg/m3]	speed of sound [m/s]	viscosity [mPa·s]
303.15 K	907.8	1092	0.373
308.15 K	902.6	1072	0.345
313.15 K	897.1	1052	0.324

CCOC=O [ethyl methanoate] + c1ccccc1
[2]
Details	mass density, 303.15 K [kg/m3]	mass density, 308.15 K [kg/m3]	mass density, 313.15 K [kg/m3]	speed of sound, 303.15 K [m/s]	speed of sound, 308.15 K [m/s]	speed of sound, 313.15 K [m/s]	viscosity, 303.15 K [mPa·s]	viscosity, 308.15 K [mPa·s]	viscosity, 313.15 K [mPa·s]
x1 = 0.1089	870.4	865.8	861.3	1252	1228	1208	0.529	0.499	0.468
x1 = 0.2169	873.5	868.9	864.3	1228	1208	1188	0.493	0.46	0.428
x1 = 0.3189	876.9	872.2	867.5	1208	1188	1168	0.462	0.431	0.401
x1 = 0.4239	880.8	876	871.2	1188	1168	1148	0.439	0.408	0.38
x1 = 0.5253	884.9	880.1	875.2	1172	1152	1132	0.422	0.392	0.364
x1 = 0.6233	889.1	884.2	879.2	1156	1136	1116	0.41	0.38	0.354
x1 = 0.7211	893.6	888.6	883.4	1140	1120	1100	0.399	0.37	0.348
x1 = 0.8148	898.1	893	887.7	1124	1104	1084	0.389	0.364	0.338
x1 = 0.9088	903	897.8	892.3	1108	1088	1068	0.379	0.355	0.329
x1 = 1	907.8	902.6	897.1	1092	1072	1052	0.373	0.345	0.324

CC(C)c1ccccc1 [isopropylbenzene]
[1]
Details	mass density [kg/m3]	speed of sound [m/s]	viscosity [mPa·s]
303.15 K	852.7	1280	0.69
308.15 K	849	1264	0.651
313.15 K	845.4	1248	0.611

CC(C)c1ccccc1 [isopropylbenzene] + CCOC=O
[2]
Details	mass density, 303.15 K [kg/m3]	mass density, 308.15 K [kg/m3]	mass density, 313.15 K [kg/m3]	speed of sound, 303.15 K [m/s]	speed of sound, 308.15 K [m/s]	speed of sound, 313.15 K [m/s]	viscosity, 303.15 K [mPa·s]	viscosity, 308.15 K [mPa·s]	viscosity, 313.15 K [mPa·s]
x2 = 0	852.7	849	845.4	1280	1264	1248	0.69	0.651	0.611
x2 = 0.1603	857	853.2	849.4	1252	1240	1228	0.63	0.585	0.544
x2 = 0.3007	861.7	857.7	853.7	1228	1216	1200	0.577	0.537	0.499
x2 = 0.4234	866.5	862.4	858.3	1204	1192	1176	0.534	0.497	0.46
x2 = 0.5352	871.9	867.7	863.3	1180	1168	1152	0.5	0.463	0.431
x2 = 0.633	877.4	872.9	868.4	1160	1148	1132	0.468	0.437	0.409
x2 = 0.7203	882.8	878.2	873.7	1144	1132	1116	0.444	0.414	0.386
x2 = 0.801	888.9	884.2	879.3	1128	1116	1100	0.424	0.394	0.367
x2 = 0.8724	894.8	890	884.9	1116	1100	1084	0.407	0.382	0.359
x2 = 0.9399	901.3	896.4	891.1	1104	1088	1068	0.39	0.362	0.34

From the NIST ThermoML archive (doi:10.1021/je900689m)
